Data from patent US7030242B2, “Selective inhibition of aggrecanase in osteoarthritis treatment” (Pfizer Inc, priority 1999, dated 2006).

Key:
aggrecanase = assay: Aggrecanase chondrocyte assay (35S-proteoglycan release, IL-1 stimulated); assay type: cell-based, porcine; details: Table 2; aggrecanase chondrocyte assay; read-out: Agg (aggrecanase IC50 class)
Experimental: Aggrecanase Chondrocyte Assay
This assay is used in the invention to measure the potency (IC50s) of compounds for aggrecanase.
Primary porcine chondrocytes from articular joint cartilage are isolated by sequential trypsin and collagenase digestion followed by collagenase digestion overnight and are plated at 2×10^5 cells per well into 48 well plates with 5 μCi/ml ^35S (1000 Ci/mmol) sulphur in type I collagen coated plates. Cells are allowed to incorporate label into their proteoglycan matrix (approximately 1 week) at 37° C., under an atmosphere of 5% CO2.
The night before initiating the assay, chondrocyte monolayers are washed two times in DMEM/1% PSF/G and then allowed to incubate in fresh DMEM/1% FBS overnight.
The following morning chondrocytes are washed once in DMEM/1% PSF/G. The final wash is allowed to sit on the plates in the incubator while making dilutions. Media and dilutions can be made as described in the Table I below.
Plates are labeled and only the interior 24 wells of the plate are used. On one of the plates, several columns are designated as IL-1 (no drug) and Control (no IL-1, no drug). These control columns are periodically counted to monitor 35S-proteoglycan release. Control and IL-1 media are added to wells (450 μl) followed by compound (50 μl) so as to initiate the assay. Plates are incubated at 37° C., with a 5% CO2 atmosphere.
At 40–50% release (when CPM from IL-1 media is 4–5 times control media) as assessed by liquid scintillation counting (LSC) of media samples, the assay is terminated (about 9 to about 12 hours). Media is removed from all wells and placed in scintillation tubes. Scintillate is added and radioactive counts are acquired (LSC). To solubilize cell layers, 500 μL of papain digestion buffer (0.2 M Tris, pH 7.0, 5 mM EDTA, 5 mM DTT, and 1 mg/ml papain) is added to each well. Plates with digestion solution are incubated at 60° C. overnight. The cell layer is removed from the plates the next day and placed in scintillation tubes. Scintillate is then added, and samples counted (LSC).
The percent of released counts from the total present in each well is determined. Averages of the triplicates are made with control background subtracted from each well.

TACE = biological target: T1, TACE (Homo sapiens, UniProt P78536); assay: Inhibition of soluble TNF-α production (TACE whole blood assay); assay type: cell-based; details: Table 2, read-out: TACE (IC50 class)
T1 construct: Human mononuclear cells are isolated from anti-coagulated human blood; endogenous in cells; host or cells: human peripheral blood mononuclear cells, LPS stimulated
Experimental: Inhibition of Soluble TNF-α Production (TACE Whole Blood Assay)
This assay is used in the invention to measure the potency (IC50s) of compounds for TACE.
Human mononuclear cells are isolated from anti-coagulated human blood using a one-step Ficoll-hypaque separation technique. (2) The mononuclear cells are washed three times in Hanks balanced salt solution (HBSS) with divalent cations and re-suspended to a density of 2×10^6/ml in HBSS containing 1% BSA.
180 μL of the cell suspension was aliquoted into flat bottom 96 well plates (Costar). Additions of compounds and LPS (100 ng/ml final concentration) gives a final volume of 200 μL. All conditions are performed in triplicate. After about a four hour incubation at about 37° C. in an humidified CO2 incubator, plates are removed and centrifuged (about 10 minutes at approximately 250×g) and the supernatants removed and assayed for TNF-α using the R&D ELISA Kit.

[1] = biological target: T2, Human recombinant collagenase-1 (Homo sapiens, UniProt P03956); assay: Inhibition of human collagenase-1 (recombinant collagenase-1 assay); assay type: biochemical; details: Table 2, read-out: MMP-1 (IC50 class)
T2 sequence (P03956 100-469): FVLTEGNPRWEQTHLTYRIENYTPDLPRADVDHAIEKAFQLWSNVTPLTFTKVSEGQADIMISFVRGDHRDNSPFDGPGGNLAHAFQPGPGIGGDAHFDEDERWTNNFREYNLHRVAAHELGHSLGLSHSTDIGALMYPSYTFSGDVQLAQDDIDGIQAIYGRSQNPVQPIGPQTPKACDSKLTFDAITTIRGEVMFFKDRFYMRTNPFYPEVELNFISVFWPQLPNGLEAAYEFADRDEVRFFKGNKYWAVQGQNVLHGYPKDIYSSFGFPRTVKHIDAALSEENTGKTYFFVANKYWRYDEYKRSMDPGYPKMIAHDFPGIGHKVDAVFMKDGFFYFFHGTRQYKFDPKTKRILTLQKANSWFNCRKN
Experimental: Inhibition of Human Collagenase-1 (Recombinant Collagenase-1 Assay)
This assay is used in the invention to measure the potency (IC50s) of compounds for collagenase-1.
Human recombinant collagenase-1 is activated with trypsin. The amount of trypsin is optimized for each lot of collagenase-1, but a typical reaction uses the following ratio: 5 mg trypsin per 100 mg of collagenase.
Stock solutions (10 mM) of inhibitors are made up in dimethylsulfoxide and then diluted using the following scheme: • 10 mM------>120 μM------>12 μM------>1.2 μM------>0.12 μM
Twenty-five microliters of each concentration is then added in triplicate to appropriate wells of a 96 well microfluor plate. The final concentration of inhibitor will be a 1:4 dilution after addition of enzyme and substrate. Positive controls (enzyme, no inhibitor) are set up in wells D7–D12 and negative controls (no enzyme, no inhibitors) are set in wells D1–D6.
Collagenase-1 is diluted to 240 ng/ml and […] is then added to appropriate wells of the microfluor plate. Final concentration of collagenase in the assay is 60 ng/ml.
Substrate (DNP-Pro-Cha-Gly-Cys(Me)-His-Ala-Lys(NMA)-NH2) is made as a 5 mM stock in dimethylsulfoxide and then diluted to 20 μM in assay buffer. The assay is initiated by the addition of […] substrate per well of the microfluor plate to give a final concentration of 10 μM.
Fluorescence readings (360 nm excitation, 460 nm emission) are taken at time 0 and then at about 20 minute intervals. The assay is conducted at a temperature of about 20 to about 25° C., preferably about 23° C. with a typical assay time of about 3 hours.
Fluorescence versus time is then plotted for both the blank and collagenase containing samples (data from triplicate determinations is averaged). A time point that provides a good signal (at least five fold over the blank) and that is on a linear part of the curve (usually around 120 minutes) is chosen to determine IC50 values. The zero time is used as a blank for each compound at each concentration and these values are subtracted from the 120 minute data. Data is plotted as inhibitor concentration versus % control (inhibitor fluorescence divided by fluorescence of collagenase alone ×100).

[2] = biological target: Human recombinant collagenase-3 (Homo sapiens, UniProt P45452); assay: Inhibition of human collagenase-3 (recombinant collagenase-3 assay); assay type: biochemical; details: Table 2; recombinant collagenase-3 assay; read-out: MMP-13 (IC50 class)
Experimental: Inhibition of Human Collagenase-3 (Recombinant Collagenase-3 Assay)
This assay is used in the invention to measure the potency (IC50s) of compounds for collagenase-3.
Human recombinant collagenase-3 is activated with 2 mM APMA (p-aminophenyl mercuric acetate) for about 2.0 hours, at about 37° C. and is diluted to about 240 ng/ml in assay buffer (50 mM Tris, pH 7.5, 200 mM sodium chloride, 5 mM calcium chloride, […], 0.02% BRIJ-35). Twenty-five micro-liters of diluted enzyme is added per well of a 96 well microfluor plate.
The final concentrations in the assay are 30 μM, 3 μM, 0.3 μM, and 0.03 μM.
Fluorescence readings (360 nm excitation; 450 nm emission) are taken at time 0 and about every 5 minutes for about 1 hour.
Positive controls and negative controls are set up in triplicate as outlined in the collagenase-1 assay. IC50's are determined as per inhibition of human collagenase (collagenase-1).

T1 sequence (P78536 215-824): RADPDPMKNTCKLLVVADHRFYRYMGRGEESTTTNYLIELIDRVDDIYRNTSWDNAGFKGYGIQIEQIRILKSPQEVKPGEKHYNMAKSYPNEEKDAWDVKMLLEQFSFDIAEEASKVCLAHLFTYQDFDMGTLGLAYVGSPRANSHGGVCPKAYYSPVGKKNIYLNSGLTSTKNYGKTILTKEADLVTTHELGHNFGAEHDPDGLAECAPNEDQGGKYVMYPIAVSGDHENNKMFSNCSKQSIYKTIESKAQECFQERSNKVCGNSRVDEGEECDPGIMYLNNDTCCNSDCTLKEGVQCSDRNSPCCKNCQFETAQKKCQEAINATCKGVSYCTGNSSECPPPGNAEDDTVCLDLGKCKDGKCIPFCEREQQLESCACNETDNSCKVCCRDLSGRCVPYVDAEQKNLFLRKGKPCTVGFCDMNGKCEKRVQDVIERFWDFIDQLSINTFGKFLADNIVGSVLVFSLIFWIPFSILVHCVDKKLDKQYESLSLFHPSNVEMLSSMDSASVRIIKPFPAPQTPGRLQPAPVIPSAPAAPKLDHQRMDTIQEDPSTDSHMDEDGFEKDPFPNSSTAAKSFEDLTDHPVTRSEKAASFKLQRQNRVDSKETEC

`CC1(C)C[C@@H](O)CN(S(=O)(=O)c2ccc(OCc3ccccc3Br)cc2)[C@H]1C(=O)NO` [(2R,5R) 1-[4-(2-bromo-benzyloxy)-benzenesulfonyl]-5-hydroxy-3,3-dimethyl-piperidine-2-carboxylic acidhydroxyamide] gave an IC50 (aggrecanase) of 10 to 20 nM, an IC50 (TACE) of under 10000 nM and an IC50 [1] of 200 to 1000 nM. It also gave an IC50 [2] of under 10 nM.

Work on `C[C@@]1(O)CCCN(S(=O)(=O)c2ccc(OCc3ccc(F)cc3F)cc2)[C@H]1C(=O)NO` [(2R,3R) 1-[4-(2,4-difluoro-benzyloxy)-benzenesulfonyl]-3-hydroxy-3-methyl-piperidine-2-carboxylic acidhydroxyamide] yielded an IC50 (aggrecanase) of 10 to 20 nM, an IC50 (TACE) of 10000 to 20000 nM and an IC50 [1] of 200 to 1000 nM. The IC50 [2] was under 10 nM.

`CC1(C)C[C@@H](O)CN(S(=O)(=O)c2ccc(OCc3ccc(F)cc3Cl)cc2)[C@H]1C(=O)NO` [(2R,5R) 1-[4-(2-chloro-4-fluoro-benzyloxy)-benzenesulfonyl]-5-hydroxy-3,3-dimethyl-piperidine-2-carboxylic acidhydroxyamide] was tested, and the IC50 (aggrecanase) was under 10 nM, the IC50 (TACE) was 10000 to 20000 nM and the IC50 [1] was 200 to 1000 nM. The IC50 [2] was under 10 nM.

For `C[C@@]1(O)CCCN(S(=O)(=O)c2ccc(OCc3ccc(Cl)cc3F)cc2)[C@H]1C(=O)NO` [(2R,3R) 1-[4-(2-fluoro-4-chloro-benzyloxy)-benzenesulfonyl]-3-hydroxy-3-methyl-piperidine-2-carboxylic acidhydroxyamide], the IC50 (aggrecanase) was under 10 nM, the IC50 (TACE) was over 40000 nM and the IC50 [1] was 20 to 200 nM. The IC50 [2] was under 10 nM.

Work on `Cc1ccc(Cl)cc1COc1ccc(S(=O)(=O)N2C[C@H](O)CC(C)(C)[C@@H]2C(=O)NO)cc1` [(2R,5R) 1-[4-(2-methyl-5-chloro-benzyloxy)-benzenesulfonyl]-5-hydroxy-3,3-dimethyl-piperidine-2-carboxylic acidhydroxyamide] yielded an IC50 (aggrecanase) of 10 to 20 nM, an IC50 (TACE) of 10000 to 20000 nM and an IC50 [1] of over 1000 nM. It also gave an IC50 [2] of 20 to 200 nM.

`CC1(C)C[C@@H](O)CN(S(=O)(=O)c2ccc(OCc3cc(Cl)ccc3F)cc2)[C@H]1C(=O)NO` [(2R,5R) 1-[4-(2-fluoro-5-chloro-benzyloxy)-benzenesulfonyl]-5-hydroxy-3,3-dimethyl-piperidine-2-carboxylic acidhydroxyamide] showed an IC50 (aggrecanase) of 10 to 20 nM, an IC50 (TACE) of 10000 to 20000 nM and an IC50 [1] of 200 to 1000 nM. For the same compound, the IC50 [2] was under 10 nM.

`Cc1ccc(F)cc1COc1ccc(S(=O)(=O)N2CC(=O)N[C@@H](C)[C@@H]2C(=O)NO)cc1` [(2R,3S) 1-[4-(2-methyl-5-fluoro-benzyloxy)-benzenesulfonyl]-3-methyl-5-oxo-piperazine-2-carboxylic acidhydroxyamide] showed an IC50 (aggrecanase) of under 10 nM, an IC50 (TACE) of under 10000 nM and an IC50 [1] of over 1000 nM. It also gave an IC50 [2] of 10 to 20 nM.

Compound `C[C@@]1(O)CCCN(S(=O)(=O)c2ccc(OCc3ccc(F)cc3Cl)cc2)[C@H]1C(=O)NO` [(2R,3R) 1-[4-(2-chloro-4-fluoro-benzyloxy)-benzenesulfonyl]-3-hydroxy-3-methyl-piperidine-2-carboxylic acidhydroxyamide] has an IC50 (aggrecanase) of under 10 nM, an IC50 (TACE) of 10000 to 20000 nM and an IC50 [1] of 200 to 1000 nM. The IC50 [2] was under 10 nM.

`Cc1cc(F)ccc1COc1ccc(S(=O)(=O)N2C[C@H](O)CC(C)(C)[C@@H]2C(=O)NO)cc1` [(2R,5R) 1-[4-(4-fluoro-2-methyl-benzyloxy)-benzenesulfonyl]-5-hydroxy-3,3-dimethyl-piperidine-2-carboxylic acidhydroxyamide] was tested, and the IC50 (aggrecanase) was under 10 nM, the IC50 (TACE) was under 10000 nM and the IC50 [1] was 200 to 1000 nM. The IC50 [2] was under 10 nM.

`CCc1ccccc1COc1ccc(S(=O)(=O)N2CCN(C(=O)NC)[C@@H](C)[C@@H]2C(=O)NO)cc1` [(2R,3S) 4-[4-(2-ethyl-benzyloxy)-benzenesulfonyl]-3-methyl-4-carboxylic acidmethylamide-piperazine-2-carboxylic acidhydroxyamide] showed an IC50 (aggrecanase) of under 10 nM, an IC50 (TACE) of under 10000 nM and an IC50 [1] of over 1000 nM. It also gave an IC50 [2] of 20 to 200 nM.

`Cc1ccccc1COc1ccc(S(=O)(=O)N2CCC[C@@](C)(O)C2C(=O)NO)cc1` (stereo partly drawn) [(2R,3R) 1-[4-(2-methyl-benzyloxy)-benzenesulfonyl]-3-hydroxy-3-methyl-piperidine-2-carboxylic acidhydroxyamide] was tested, and the IC50 (aggrecanase) was under 10 nM, the IC50 (TACE) was under 10000 nM and the IC50 [1] was 200 to 1000 nM. The IC50 [2] was under 10 nM.

In the case of `Cc1ccccc1COc1ccc(S(=O)(=O)N2CCN(C(=O)CN)[C@@H](C)[C@@H]2C(=O)NO)cc1` [(2R,3S) 1-[4-(2-methyl-benzyloxy)-benzenesulfonyl]-4-aminoacetyl-3-methyl-piperazine-2-carboxylic acidhydroxyamide], the IC50 (aggrecanase) is reported as under 10 nM, the IC50 (TACE) is reported as under 10000 nM and the IC50 [1] is reported as over 1000 nM. It also gave an IC50 [2] of 20 to 200 nM.
